According to patent US8802700B2 (Vertex Pharmaceuticals Incorporated, priority 2010, dated 2014):

Molecular target: T1, ΔF508-CFTR (Homo sapiens, UniProt P13569, DEL508-508)
T1 construct: expressed in transfected cells
Experiment: Membrane potential optical assay (FRET voltage-sensor dyes, VIPR), identification of potentiator compounds
Type: cell-based
Conditions: Table 3; assay not given
Outline: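 NIH3T3 mouse fibroblasts stably expressing ΔF508-CFTR, cultured 24 h at 27 °C, were loaded with FRET voltage dyes CC2-DMPE and DiSBAC2(3). Double-addition format: first addition of Cl⁻-free (gluconate) medium with or without compound; membrane-potential change read as fluorescence on VIPR II.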

T1 sequence (P13569 with tags, fused parts or gaps DEL508-508): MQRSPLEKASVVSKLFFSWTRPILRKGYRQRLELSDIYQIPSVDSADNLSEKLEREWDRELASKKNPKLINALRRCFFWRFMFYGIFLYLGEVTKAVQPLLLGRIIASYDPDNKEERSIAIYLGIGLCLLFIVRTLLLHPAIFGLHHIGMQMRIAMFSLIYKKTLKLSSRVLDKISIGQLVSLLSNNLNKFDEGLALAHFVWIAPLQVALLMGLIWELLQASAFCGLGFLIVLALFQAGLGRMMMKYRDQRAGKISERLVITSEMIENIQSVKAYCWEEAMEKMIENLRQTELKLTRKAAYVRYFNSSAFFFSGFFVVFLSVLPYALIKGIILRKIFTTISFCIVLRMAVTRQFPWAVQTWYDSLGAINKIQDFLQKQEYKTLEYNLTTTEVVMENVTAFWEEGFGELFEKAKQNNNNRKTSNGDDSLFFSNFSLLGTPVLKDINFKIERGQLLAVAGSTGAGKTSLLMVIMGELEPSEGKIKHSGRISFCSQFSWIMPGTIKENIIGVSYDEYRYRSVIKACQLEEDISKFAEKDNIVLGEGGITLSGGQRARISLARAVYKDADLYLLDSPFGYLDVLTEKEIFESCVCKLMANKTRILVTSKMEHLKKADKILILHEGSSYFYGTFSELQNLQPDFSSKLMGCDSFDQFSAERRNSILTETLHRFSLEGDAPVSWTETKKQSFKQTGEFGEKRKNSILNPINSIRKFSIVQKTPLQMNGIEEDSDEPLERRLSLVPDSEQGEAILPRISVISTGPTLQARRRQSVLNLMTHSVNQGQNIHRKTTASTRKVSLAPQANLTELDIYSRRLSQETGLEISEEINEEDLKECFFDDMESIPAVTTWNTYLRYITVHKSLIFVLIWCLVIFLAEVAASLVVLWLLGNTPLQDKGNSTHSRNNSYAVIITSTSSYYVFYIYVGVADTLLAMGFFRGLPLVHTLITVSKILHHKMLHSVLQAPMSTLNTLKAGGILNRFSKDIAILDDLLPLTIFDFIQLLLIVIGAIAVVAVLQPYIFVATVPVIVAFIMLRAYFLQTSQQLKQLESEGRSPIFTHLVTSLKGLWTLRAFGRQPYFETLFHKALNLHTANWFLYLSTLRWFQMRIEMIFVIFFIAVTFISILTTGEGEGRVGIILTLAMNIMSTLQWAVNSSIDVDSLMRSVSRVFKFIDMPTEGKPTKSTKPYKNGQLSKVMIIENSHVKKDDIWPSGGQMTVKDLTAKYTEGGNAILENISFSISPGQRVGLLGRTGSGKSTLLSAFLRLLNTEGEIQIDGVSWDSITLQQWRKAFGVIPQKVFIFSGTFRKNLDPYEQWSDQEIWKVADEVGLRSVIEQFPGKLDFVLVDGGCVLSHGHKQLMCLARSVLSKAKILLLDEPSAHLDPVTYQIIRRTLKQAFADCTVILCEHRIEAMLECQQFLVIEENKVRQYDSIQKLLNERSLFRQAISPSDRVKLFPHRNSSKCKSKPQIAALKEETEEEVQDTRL

EC50 [µM] | Compound
< 10 | CC(C)c1ccc(NC(=O)c2c[nH]c3ccccc3c2=O)cc1 [Compound 425, N-(4-isopropylphenyl)-4-oxo-1H-quinoline-3-carboxamide]

Same assay, conditions: Table 3; assay not given; read-out: % Activity (% Efficacy, relative efficacy)

Compound | Emax [%]
O=C(Nc1ccc2ccccc2n1)c1c[nH]c2ccccc2c1=O [Compound 19, 4-oxo-N-(2-quinolyl)-1H-quinoline-3-carboxamide] | < 25
Cc1cccc2c(=O)c(C(=O)Nc3cc(O)c(C(C)(C)C)cc3C(C)(C)C)c[nH]c12 [Compound 621, N-(5-hydroxy-2,4-ditert-butyl-phenyl)-8-methyl-4-oxo-1H-quinoline-3-carboxamide] | < 25
COc1nc2ccccc2c(OC)c1C(=O)Nc1ccccc1C(C)(C)C [Compound 296, 2,4-dimethoxy-N-(2-tert-butylphenyl)-quinoline-3-carboxamide] | 25 to 100
CC(C)c1ccc(NC(=O)c2c[nH]c3ccccc3c2=O)cc1 [Compound 425, N-(4-isopropylphenyl)-4-oxo-1H-quinoline-3-carboxamide] | 25 to 100
CC(=O)Nc1cc(NC(=O)c2c[nH]c3ccccc3c2=O)cc(C(F)(F)F)c1 [Compound 379, N-[3-acetylamino-5-(trifluoromethyl)phenyl]-4-oxo-1H-quinoline-3-carboxamide] | 25 to 100
CC1(c2cc(F)c(NC(=O)c3c[nH]c4cccc(O)c4c3=O)cc2O)CCCCC1 [Compound 287, N-[2-fluoro-5-hydroxy-4-(1-methylcyclohexyl)-phenyl]-5-hydroxy-4-oxo-1H-quinoline-3-carboxamide] | 25 to 100
CC(C)(C)c1cc(C(C)(C)C)c(NC(=O)c2c[nH]c3ccc(Cl)cc3c2=O)cc1O [Compound 623, 6-chloro-N-(5-hydroxy-2,4-ditert-butyl-phenyl)-4-oxo-1H-quinoline-3-carboxamide] | 25 to 100

Results, then the compound that gave them:

Emax [%] | Compound
25 to 100 | O=C(Nc1ccccc1-c1cc(Cl)ccc1Cl)c1c[nH]c2ccccc2c1=O [Compound 213, N-[2-(2,5-dichlorophenyl)phenyl]-4-oxo-1H-quinoline-3-carboxamide]
25 to 100 | Cc1ccc(NC(=O)c2c[nH]c3ccccc3c2=O)cc1C [Compound 246, N-(3,4-dimethylphenyl)-4-oxo-1H-quinoline-3-carboxamide]
25 to 100 | O=C(Nc1cc(O)c(Cl)cc1Cl)c1c[nH]c2ccccc2c1=O [Compound 608, N-(2,4-dichloro-5-hydroxy-phenyl)-4-oxo-1H-quinoline-3-carboxamide]
< 25 | NC(=O)c1ccccc1NC(=O)c1c[nH]c2ccccc2c1=O [Compound 331, N-(2-carbamoylphenyl)-4-oxo-1H-quinoline-3-carboxamide]
25 to 100 | O=C(Nc1cc(Cl)ccc1Oc1ccccc1)c1c[nH]c2ccccc2c1=O [Compound 292, N-(5-chloro-2-phenoxy-phenyl)-4-oxo-1H-quinoline-3-carboxamide]
